Measurements: patent publication US9328138B2 (priority 2011, dated 2016)

Assays:
[1] = target: HCV NS3 protease genotype 3a (3A-1) (Hepatitis C virus genotype 3a, UniProt Q81258); assay: HCV NS3 protease time-resolved fluorescence (TRF) assay, genotype 3a; assay type: biochemical; conditions: Ki 3a
Procedure, shortened: (§1)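 Steps: compound plus NS3/NS4A enzyme for 10 minutes; add peptide substrate to 25 nM; let cleavage proceed 6 hours at room temperature; read product fluorescence (340 nm excitation, 615 nm emission, delayed 400 μs). Enzyme levels gave signal/background 5-20.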

[2] = target: T1, HCV genotype 1b (BK) NS3 modified enzyme with a R155K mutation (Hepatitis C virus genotype 1b, UniProt P26663, R1181K); assay: HCV NS3 protease time-resolved fluorescence (TRF) assay, genotype 1b R155K; assay type: biochemical; conditions: Ki 1b R155K, genotype 1b (BK) NS3 R155K; single value
T1 construct: HCV genotype 1b (BK) NS3 modified enzyme
Procedure, shortened: as §1

## C=C[C@@H]1C[C@]1(NC(=O)[C@@H]1C[C@@H]2CN1C(=O)[C@H](C1CCCC1)NC(=O)O[C@@H]1CCC[C@H]1CC/C=C/Cc1c(nc3ccc(Br)cc3c1O)O2)C(=O)NS(=O)(=O)C1CC1 [Example 22, (3aR,7S,10S,12R,21E,24aS)-17-bromo-7-cyclopentyl-N-{(1R,2S)-1-[(cyclopropylsulfonyl)carbamoyl]-2-ethenylcyclopropyl}-19-hydroxy-5,8-dioxo-1,2,3,3a,5,6,7,8,11,12,20,23,24,24a-tetradecahydro-10H-9,12-methanocyclopenta[18,19][1,10,3,6]dioxadiazacyclononadecino[11,12-b]quinoline-10-carboxamide]
[1]
  Ki: 9.3 nM
[2]
  Ki: 0.33 nM

## C=C[C@@H]1C[C@]1(NC(=O)[C@@H]1C[C@@H]2CN1C(=O)[C@H](C1CCCC1)NC(=O)O[C@@H]1CCC[C@H]1CC/C=C/Cc1c(nc3ccccc3c1O)O2)C(=O)NS(=O)(=O)C1(C)CC1 [Example 23, (3aR,7S,10S,12R,21E,24aS)-7-cyclopentyl-N-[(1R,2S)-2-ethenyl-1-{[(1-methylcyclopropyl)sulfonyl]carbamoyl}cyclopropyl]-19-hydroxy-5,8-dioxo-1,2,3,3a,5,6,7,8,11,12,20,23,24,24a-tetradecahydro-10H-9,12-methanocyclopenta[18,19][1,10,3,6]dioxadiazacyclononadecino[11,12-b]quinoline-10-carboxamide]
[1]
  Ki: 0.64 nM
[2]
  Ki: 0.11 nM

## C=C[C@@H]1C[C@]1(NC(=O)[C@@H]1C[C@@H]2CN1C(=O)[C@H](C1CCCC1)NC(=O)O[C@@H]1CCC[C@H]1CCCCCc1c(nc3ccccc3c1OCC)O2)C(=O)NS(=O)(=O)C1CC1 [Example 24, (3aR,7S,10S,12R,24aR)-7-cyclopentyl-N-{(1R,2S)-1-[(cyclopropylsulfonyl)carbamoyl]-2-ethenylcyclopropyl}-19-ethoxy-5,8-dioxo-1,2,3,3a,5,6,7,8,11,12,20,21,22,23,24,24a-hexadecahydro-10H-9,12-methanocyclopenta[18,19][1,10,3,6]dioxadiazacyclononadecino[11,12-b]quinoline-10-carboxamide]
[1]
  Ki: 9.1 nM
[2]
  Ki: 0.39 nM

## CCOc1c2c(nc3ccccc13)O[C@@H]1C[C@@H](C(=O)N[C@]3(C(=O)NS(=O)(=O)C4CC4)C[C@H]3CC)N(C1)C(=O)[C@H](C1CCCC1)NC(=O)O[C@@H]1CCC[C@H]1CCCCC2 [Example 25, (3aR,7S,10S,12R,24aR)-7-cyclo pentyl-N-{(1R,2R)-1-[(cyclopropylsulfonyl)carbamoyl]-2-ethylcyclopropyl}-19-ethoxy-5,8-dioxo-1,2,3,3a,5,6,7,8,11,12,20,21,22,23,24,24a-hexadecahydro-10H-9,12-methanocyclopenta[18,19][1,10,3,6]dioxa diazacyclononadecino[11,12-b]quinoline-10-carboxamide]
[1]
  Ki: 88 nM
[2]
  Ki: 5.2 nM

## C=C[C@@H]1C[C@]1(NC(=O)[C@@H]1C[C@@H]2CN1C(=O)[C@H](C1CCCC1)NC(=O)O[C@@H]1CCC[C@H]1CCCCCc1c(nc3ccccc3c1OC)O2)C(=O)NS(=O)(=O)C1CC1 [Example 26, (3aR,7S,10S,12R,24aR)-7-cyclo pentyl-N-{(1R,2S)-1-[(cyclopropylsulfonyl)carbamoyl]-2-ethenylcyclopropyl}-19-methoxy-5,8-dioxo-1,2,3,3a,5,6,7,8,11,12,20,21,22,23,24,24a-hexadecahydro-10H-9,12-methanocyclopenta [18,19][1,10,3,6]dioxadiazacyclononadecino [11,12-b]quinoline-10-carboxamide]
[1]
  Ki: 13 nM
[2]
  Ki: 0.33 nM

## CC[C@@H]1C[C@]1(NC(=O)[C@@H]1C[C@@H]2CN1C(=O)[C@H](C1CCCC1)NC(=O)O[C@@H]1CCC[C@H]1CCCCCc1c(nc3ccccc3c1OC)O2)C(=O)NS(=O)(=O)C1CC1 [Example 27, (3aR,7S,10S,12R,24aR)-7-cyclo pentyl-N-{(1R,2R)-1-[(cyclopropylsulfonyl)carbamoyl]-2-ethylcyclopropyl}-19-methoxy-5,8-dioxo-1,2,3,3a,5,6,7,8,11,12,20,21,22,23,24,24a-hexadeca hydro-10H-9,12-methanocyclopenta[18,19] [1,10,3,6]dioxadiazacyclononadecino[11,12-b] quinoline-10-carboxamide]
[1]
  Ki: 59 nM
[2]
  Ki: 2.5 nM

## C=C[C@@H]1C[C@]1(NC(=O)[C@@H]1C[C@@H]2CN1C(=O)[C@H](C1CCCC1)NC(=O)O[C@@H]1C[C@H]1CCCCCc1c(nc3ccccc3c1OC)O2)C(=O)NS(=O)(=O)C1CC1 [Example 28, (1aR,5S,8S,10R,22aR)-5-cyclo pentyl-N-{(1R,2S)-1-[(cyclopropylsulfonyl)carbamoyl]-2-ethenylcyclopropyl}-17-methoxy-3,6-dioxo-1,1a, 3,4,5,6,9,10,18,19,20,21,22,22a-tetradecahydro-8H-7,10-methanocyclopropa[18,19][1,10,3,6] dioxadiazacyclononadecino[11,12-b]quinoline-8-carboxamide]
[1]
  Ki: 35 nM
[2]
  Ki: 0.7 nM

## C=C[C@@H]1C[C@]1(NC(=O)[C@@H]1C[C@@H]2CN1C(=O)[C@H](C1CCCC1)NC(=O)O[C@@]1(C)CCC[C@@H]1CCCCCc1c(nc3ccccc3c1O)O2)C(=O)NS(=O)(=O)C1CC1 [Example 30, (3aS,7S,10S,12R,24aS)-7-cyclopentyl-N-{(1R,2S)-1-[(cyclopropylsulfonyl)carbamoyl]-2-ethenylcyclopropyl}-19-hydroxy-3a-methyl-5,8-dioxo-1,2,3,3a,5,6,7,8,11,12,20,21,22,23,24,24a-hexa-decahydro-10H-9,12-methanocyclopenta[18,19] [1,10,3,6]dioxadiazacyclononadecino[11,12-b] quinoline-10-carboxamide]
[1]
  Ki: 4.9 nM
[2]
  Ki: 1.3 nM

## CC[C@@H]1C[C@]1(NC(=O)[C@@H]1C[C@@H]2CN1C(=O)[C@H](C1CCCC1)NC(=O)O[C@@]1(C)CCC[C@@H]1CCCCCc1c(nc3ccccc3c1O)O2)C(=O)NS(=O)(=O)C1CC1 [Example 31, (3aS,7S,10S,12R,24aS)-7-cyclopentyl-N-{(1R,2R)-1-[(cyclopropylsulfonyl)carbamoyl]-2-ethylcyclopropyl}-19-hydroxy-3a-methyl-5,8-dioxo-1,2,3-3a,5,6,7,8,11,12,20,21,22,23,24,24a-hexadeca hydro-10H-9,12-methanocyclopenta[18,19] [1,10,3,6]dioxadiazacyclononadecino[11,12-b] quinoline-10-carboxamide]
[1]
  Ki: 23 nM
[2]
  Ki: 4.1 nM

## C=C[C@@H]1C[C@]1(NC(=O)[C@@H]1C[C@@H]2CN1C(=O)[C@H](C1CCCC1)NC(=O)N1CC[C@@H](C1)OCCCCCCc1c(nc3ccccc3c1OCC)O2)C(=O)NS(=O)(=O)C1CC1 [Example 33, (2R,4S,7S,13S)-7-cyclopentyl-N-{(1R,2S)-1-[(cyclopropylsulfonyl)carbamoyl]-2-ethenylcyclopropyl}-21-ethoxy-6,9-dioxo-3,4,6,7,8,9,12, 13,15,16,17,18,19,20-tetradecahydro-2H,11H-2,5:10,13-dimethano[1,14,5,7,10]dioxatriazacyclo docosino[15,16-b]quinoline-4-carboxamide]
[1]
  Ki: 22 nM
[2]
  Ki: 0.32 nM

## C=C[C@@H]1C[C@]1(NC(=O)[C@@H]1C[C@@H]2CN1C(=O)[C@H](C1CCCC1)NC(=O)O[C@@H]1CCC[C@H]1CCCCCc1c(nc3ccccc3c1O)O2)C(=O)NS(=O)(=O)C1CC1 [Example 34, (3aR,7S,10S,12R,24aR)-7-cyclo pentyl-N-{(1R,2S)-1-[(cyclopropylsulfonyl)carbamoyl]-2-ethenylcyclopropyl}-19-hydroxy-5,8-dioxo-1,2,3,3a,5,6,7,8,11,12,20,21,22,23,24,24a-hexadecahydro-10H-9,12-methanocyclopenta [18,19][1,10,3,6]dioxadiazacyclononadecino [11,12-b]quinoline-10-carboxamide]
[1]
  Ki: 1.8 nM
[2]
  Ki: 0.1 nM

## C=C[C@@H]1C[C@]1(NC(=O)[C@@H]1C[C@@H]2CN1C(=O)[C@H](C(C)(C)C)NC(=O)O[C@@H]1CCC[C@H]1CCCCCc1c(nc3ccccc3c1O)O2)C(=O)NS(=O)(=O)C1(COC)CC1 [Example 35, (3aR,7S,10S,12R,24aR)-7-tert-butyl-N-[(1R,2S)-2-ethenyl-1-({[1-(methoxymethyl)cyclopropyl]sulfonyl}carbamoyl)cyclopropyl]-19-hydroxy-5,8-dioxo-1,2,3,3a,5,6,7,8,11,12, 20,21,22,23,24,24a-hexadecahydro-10H-9,12-methanocyclopenta[18,19][1,10,3,6] dioxadiazacyclononadecino[11,12-b]quinoline-10-carboxamide]
[1]
  Ki: 2 nM
[2]
  Ki: 0.15 nM

## C=C[C@@H]1C[C@]1(NC(=O)[C@@H]1C[C@@H]2CN1C(=O)[C@H](C(C)(C)C)NC(=O)O[C@@H]1CCC[C@H]1CCCCCc1c(nc3ccccc3c1O)O2)C(=O)NS(=O)(=O)C1(COCc2ccccc2)CC1 [Example 36, (3aR,7S,10S,12R,24aR)-N-{(1R,2S)-1-[({1-[(benzyloxy)methyl]cyclopropyl}sulfonyl)carbamoyl]-2-ethenylcyclopropyl}-7-tert-butyl-19-hydroxy-5,8-dioxo-1,2,3,3a,5,6,7,8,11,12, 20,21,22,23,24,24a-hexadeca hydro-10H-9,12-methanocyclopenta[18,19][1,10,3,6] dioxadiazacyclononadecino[11,12-b] quinoline-10-carboxamide]
[1]
  Ki: 3.2 nM
[2]
  Ki: 0.15 nM
